Test results: patent publication US5846986A, “Therapeutic phenoxyalkylazoles and phenoxyalkylazines” (Sanofi, priority 1997, dated 1998)

System: panel of 10 human rhinopicornavirus serotypes HRV-3, -4, -5, -9, -16, -18, -38, -66, -75 and -67 (panel B)
Assay: automated TCID-50 assay, HeLa cells, panel B of 10 human rhinopicornavirus serotypes
Assay type: cell-based
Conditions: minimum concentration required to inhibit 50% of the tested serotypes, number of serotypes tested in column N, 3 days, 33° C.
Protocol: The MIC values were determined by an automated tissue culture infectious dose 50% (TCID-50) assay. HeLa cells in monoloyers in 96-well cluster plates were infected with a dilution of picornavirus which had been shown empirically to produce 80% to 100% cytopathic effect (CPE) in 3 days in the absence of drug. The compound to be tested was serially diluted through 10, 2-fold cycles and added to the infected cells. After a 3 day incubation at 33° C. and 2.5% carbon dioxide, the cells were fixed with a 5% solution of glutaraldehyde followed by staining with a 0.25% solution of crystal violet in water. […]
In the above test procedures, representative compounds of formula I were tested against some the serotypes from either a panel of fifteen human rhinopicornavirus (HRV) serotypes, (noted in the table as panel T) namely, HRV-2, -14, -1A, -1B, -6, -21, -22, -15, -25, -30, -50, -67, -89, -86 and -41 or against some of the serotypes from a panel of 10 human rhinopicornavirus serotypes namely HRV-3, -4, -5, -9, -16, -18, -38, -66, -75 and -67, (noted in the table as panel B) and the MIC value, expressed in micrograms per milliliter […], for each rhinopicornavirus serotype was determined for each picornavirus, example le is given as an example of the data. […]

“3-Methyl-5-[3-[4-(2-methyl-tetrazol-5-yl)-2,6-dimethylphenoxy]-propyl]-thiazole [Example 11]” was tested, and the Mic50 was 0.148 µg/mL.
